Experimental data from ChEMBL document CHEMBL3352543, “Synthesis and structure-activity relationship of novel cinnamamide derivatives as antidepressant agents” (Bioorg Med Chem Lett, 2014).

Assays:
[1] = tested on: Mus musculus; assay: Toxic CNS activity in C57BL/6 mouse assessed as locomotor activity by measuring exploratory activity counts at 10 mg/kg, ig by open-field test (reference value: 94.50 +/- 6.18 counts); type: toxicity, organism-based; parameters: dose 10 mg/kg, route intragastric; conditions: in vivo, po
[2] = tested on: Mus musculus; assay: Antidepressant activity in C57BL/6 mouse assessed as decrease in immobility duration at 10 mg/kg, ig by tail suspension test; type: functional; conditions: C57BL/6, Tail, po, route intragastric
[3] = Solubility in water; type: physicochemical; conditions: buffer
[4] = tested on: Mus musculus; assay: Antidepressant activity in C57BL/6 mouse assessed as decrease in immobility duration at 10 mg/kg, ig by forced swim test; type: functional; conditions: C57BL/6, po, route intragastric
[5] = tested on: Mus musculus; assay: Antidepressant activity in C57BL/6 mouse assessed as decrease in immobility duration at 5 mg/kg, ig by forced swim test; type: functional; conditions: C57BL/6, po, route intragastric
[6] = tested on: Mus musculus; assay: Antidepressant activity in ig dosed C57BL/6 mouse assessed as decrease in immobility duration by tail suspension test; type: functional, organism-based
[7] = tested on: Mus musculus; assay: Antidepressant activity in C57BL/6 mouse assessed as decrease in immobility duration at 2.5 mg/kg, ig by forced swim test; type: functional; conditions: C57BL/6, po, route intragastric
[8] = tested on: Mus musculus; assay: Antidepressant activity in ig dosed C57BL/6 mouse assessed as decrease in immobility duration by forced swim test; type: functional, organism-based

Row | Structure (SMILES) | Activity [1] | inhibition in vivo at 10 mg/kg [2] [%] | also measured
1 | CC(C)CNC(=O)/C=C/c1cc(I)c2c(c1)OCO2 | 94.42 | 15.1 | 
2 | COc1cc(/C=C/C(=O)NCC(C)C)cc2c1OCO2 | 100.92 | 11.7 | 
3 | O=C(/C=C/c1cc2c(c(C(F)(F)F)c1)OCO2)N1CCCCC1 | 83.6 | 31.5 | 
4 | O=C(c1cc2c(c(C(F)(F)F)c1)OCO2)N1CCCCC1 | 87.4 | 37.1 | 
5 | CC(C)CNC(=O)/C=C/c1cc2c(c([N+](=O)[O-])c1)OCO2 | 98 | 6.4 | 
6 | CN1CCN(C(=O)/C=C/c2cc3c(c(C(F)(F)F)c2)OCO3)CC1 | 86.2 | 24 | solubility [3]: soluble
7 | CC(C)CNC(=O)/C=C/c1cc(Cl)c2c(c1)OCO2 | 94.75 | 29.1 | 
8 | CCN(CC)C(=O)/C=C/c1cc2c(c(C(F)(F)F)c1)OCO2 | 95.3 | 40.2 | 
9 | CNCCC(Oc1ccc(C(F)(F)F)cc1)c1ccccc1 (stereo not drawn) [FLUOXETINE] | 102 | 39.4 | inhibition in vivo at 10 mg/kg [4]: 29%
10 | CC(C)CNC(=O)c1cc2c(c(C(F)(F)F)c1)OCO2 | 93.2 | 33.1 | 
11 | CC(C)CNC(=O)/C=C/c1ccc2c(c1)OCO2 [FOGARAMIDE] | 89.24 | 13.2 | 
12 | CC(C)CNC(=O)/C=C/c1cc2c(c(C(F)(F)F)c1)OCO2 | 99.4 | 42.5 | inhibition in vivo at 5 mg/kg [5]: 34.4%; inhibition in vivo at 10 mg/kg [4]: 43.5%; inhibition [6]: Dose-dependent effect; inhibition in vivo at 2.5 mg/kg [7]: 20.8%; inhibition [8]: Dose-dependent effect
13 | CC(C)CNC(=O)CCc1cc2c(c(C(F)(F)F)c1)OCO2 | 86.6 | 28.8 | 
14 | O=C(/C=C/c1cc2c(c(C(F)(F)F)c1)OCO2)N1CCNCC1 | 91.54 | 21.8 | solubility [3]: soluble
15 | CN(C)C(=O)/C=C/c1cc2c(c(C(F)(F)F)c1)OCO2 | 84 | 12.6 | 
